Data from BindingDB's records for doi:10.1016/j.bmcl.2011.11.036 (Pfizer, 2011).

experiment: Inhibition of mouse Sky kinase assessed as inhibition of src substrate phosphorylation by ELISA

Row | SMILES | IC50 [nM]
1 | O=C(c1cc2cc(Cl)ccc2[nH]1)N1C[C@]2(CCN(C3CCCNC3)C2)c2ccccc21 (stereo partly drawn) | 1040
2 | O=C(c1cc2cc(Cl)ccc2[nH]1)N1C[C@]2(CCN(C3CCNCC3)C2)c2ccccc21 | 8660
3 | O=C(c1cc2cc(F)ccc2[nH]1)N1C[C@]2(CCN(C3CNC3)C2)c2ccccc21 | 1810
4 | CN1CCC(N2CC[C@]3(CN(C(=O)c4cc5cc(F)ccc5[nH]4)c4ccccc43)C2)CC1 | 2880
5 | O=C(c1cc2cc(F)ccc2[nH]1)N1C[C@]2(CCN(CC3CCCNC3)C2)c2ccccc21 (stereo partly drawn) | 4410
6 | CCN1CCCC(N2CC[C@]3(CN(C(=O)c4cc5cc(F)ccc5[nH]4)c4ccccc43)C2)C1 (stereo partly drawn) | 4930
7 | O=C(c1cc2cc(F)ccc2[nH]1)N1C[C@]2(CCN(C3CCCCC3)C2)c2ccccc21 | 27900
8 | Cc1ccc(N2CC[C@@]3(C2)CN(C(=O)c2cc4cc(F)ccc4[nH]2)c2ccccc23)cn1 | 37800
9 | COc1ccc2cc(C(=O)N3C[C@]4(CCN(C5CCNC5)C4)c4ccccc43)[nH]c2c1 (stereo partly drawn) | 843
10 | NC(=O)c1ccc2cc(C(=O)N3C[C@]4(CCN(C5CCNC5)C4)c4ccccc43)[nH]c2c1 (stereo partly drawn) | 2200
11 | N#Cc1ccc2cc(C(=O)N3C[C@]4(CCN(C5CCNC5)C4)c4ccccc43)[nH]c2c1 (stereo partly drawn) | 1130

Molecules with a lower IC50, results first:

Row | IC50 [nM] | SMILES
12 | 811 | Cc1ccc2[nH]c(C(=O)N3C[C@]4(CCN(C5CCNC5)C4)c4ccccc43)cc2c1 (stereo partly drawn)
13 | 598 | O=C(c1cc2ccc(F)cc2[nH]1)N1C[C@]2(CCN(C3CCNC3)C2)c2ccccc21 (stereo partly drawn)
14 | 560 | O=C(c1cc2c(Cl)cccc2[nH]1)N1C[C@]2(CCN(C3CCNC3)C2)c2ccccc21 (stereo partly drawn)
15 | 501 | COc1ccc2[nH]c(C(=O)N3C[C@]4(CCN(C5CCNC5)C4)c4ccccc43)cc2c1 (stereo partly drawn)
16 | 495 | O=C(c1cc2cc(Cl)ccc2[nH]1)N1C[C@]2(CCN(C3CCNC3)C2)c2ccccc21 (stereo partly drawn)
17 | 246 | C[C@@H]1CCC(N2CC[C@]3(CN(C(=O)c4cc5ccccc5[nH]4)c4ccccc43)C2)CN1 (stereo partly drawn)
18 | 189 | C[C@@H]1CCC(N2CC[C@]3(CN(C(=O)c4cc5ccc(F)cc5[nH]4)c4ccccc43)C2)CN1 (stereo partly drawn)
